Measurements reported in patent US9487787B2, “Method for regulating protein function in cells using synthetic small molecules” (The Board of Trustees of the Leland Stanford Junior …, priority 2007, dated 2016).
Peptide text beside a SMILES is read from it. * marks the point of attachment. Cbz = O=C(OCc1ccccc1)*

Legend:
[1] = target: FKBP F36V variant (Homo sapiens, UniProt P62942, F37V); settings: Clackson et al. 1998; cited from earlier work
[2] = system: YFP fusion protein; experiment: Immunoblot of YFP fusion protein in transfected Plasmodium; format: cell-based, Plasmodium falciparum
[3] = system: FKBP-YFP fusion proteins; experiment: Kinetics of FKBP-YFP fluorescence upon addition of Shield1; format: cell-based, human; settings: NIH3T3 cells stably expressing FKBP-YFP variants
Description: (§1) The data for FIGS. 2A-2D are presented as the average mean fluorescence intensity (MFI)±SEM relative to that of the maximum fluorescence intensity observed for the individual mutant. Experiments were performed in triplicate. (FIG. 2A) Fluorescence of FKBP-YFP fusion proteins expressed in NIH3T3 cells as determined by flow cytometry in the absence of Shield1. (FIG. 2B) NIH3T3 cells stably expressing FKBP-YFP fusion proteins were treated with three-fold dilutions of Shield1 (1 μM to 0.1 nM) and the fluorescence was monitored by flow cytometry. (FIG. 2C) NIH3T3 cells stably expressing FKBP-YFP fusion proteins were either mock-treated (circles) or treated with 30 nM Shield1 (squares), 100 nM Shield1 (diamonds), 300 nM Shield1 (crosses), or 1 μM Shield1 (triangles). Fluorescence was monitored over time using flow cytometry. MFI was normalized to 100% of cells treated with 1 μM Shield1 at 24 hrs. (FIG. 2D) NIH3T3 cells stably expressing FKBP-YFP fusion proteins were treated with 1 μM Shield1 for 24 hours at which point the cells were washed with media to remove Shield1, and the decrease in fluorescence was monitored using flow cytometry.
(§2) FIG. 8 is a graph showing the kinetics of FKBP-YFP fluorescence in cells upon addition of Shield1. NIH3T3 cells stably expressing the indicated FKBP-YFP fusions were treated with 1 μM Shield1, and increases in fluorescence were monitored over time using flow cytometry. Data are presented as the average mean fluorescence intensity (MFI)±SEM relative to that of the maximum fluorescence intensity observed for the individual variant. The experiment was performed in triplicate, and MFI was normalized to 100% at 24 hr.
(§3) In a kinetic study of NIH3T3 cells stably expressing each of the five FKBP-derived, ligand-responsive destabilizing domain variants, YFP fluorescence increased at approximately the same rate upon addition of Shield1, with maximum fluorescence achieved at 24 hours and stably maintained for at least an additional 48 hours without further addition of Shield1 (FIG. 2C). […]

[4] = target: T1, FKBP-YFP fusion proteins (Homo sapiens, UniProt P62942, F37V); experiment: as above; format: cell-based; settings: NIH3T3 cells transduced with L106P-YFP
T1 construct: expressed in transfected cells
Description: as §1, §2, §3

[5] = system: L106P-RhoA, L106P-Cdc42, Arl7-L106P in NIH3T3 cells; experiment: Ligand-dependent control of cell morphology by GTPase fusions, confocal microscopy; format: cell-based; settings: Shield1-treated, mock-treated or Shield1 removed
Description: NIH3T3 cells stably expressing constitutively active GTPases fused to destabilizing domains were treated with 1 μM Shield1 for 24 hr. At this time, cells were washed once with PBS, plated at 8×10^3 cells in 4-well LabTek Chambered coverglass (NUNC) coated with 1 mg/ml poly-D-lysine (Sigma), along with mock-treated transduced cells and transduced cells treated with 1 μM Shield1. Cells were cultured for 24 hr in 10% DBS, then cultured in serum-free media for 12 hr. Cells were then washed with PBS, fixed in 4% paraformaldehyde for 15 min, permeabilized in 0.2% Triton X-100 for 5 min, stained with 1 μg/ml Alexa Fluor 488-conjugated phalloidin (Invitrogen; A12379) in PBS for 20 min, and washed with PBS. Fixed cells were imaged using a Bio-Rad Radiance 2100 confocal microscope.
Expression of constitutively active small GTPases causes well-characterized changes in cellular morphology (Heo and Meyer, 2003). To determine if FKBP-derived destabilizing domains, in combination with Shield1, could affect cell morphology by modulating GTPases levels, several small GTPases (i.e., RhoA, Cdc42, or Arl7) were fused to the destabilizing domains (FIGS. 4A and 4B). NIH3T3 cells were individually transduced with the L106P-RhoA, L106P-Cdc42, or Arl7-L106P (note arrangement of fusions), and then mock-treated or treated with Shield1, and visualized using confocal microscopy (not shown). […]

[6] = system: luciferase fused to FKBP-derived stability-affecting protein (F36V/L106P); experiment: Bioluminescence imaging of mice challenged with HCT116 tumor cells expressing luciferase-FKBP fusion; format: in vivo, SCID mice
Source text: FIGS. 7A and 7B are graphs showing the results of an experiments in which SCID mice were challenged with tumor cells genetically manipulated to express luciferase fused to a stability-affecting protein.
HCT116 cancer cells were transfected with a nucleic acids encoding the reporter gene luciferase fused to an FKBP-derived stability-affecting protein (F36V/L106P) mutant. Stable transformants were then selected and used to challenge SCID mice.
The results of an experiments in which SCID were challenged with tumor cells harboring nucleic acids encoding luciferase fused to an FKBP-derived, stability-affecting protein (F36V/L106P) are shown in FIGS. 7A and 7B. The mice were either untreated or treated with the indicated amounts of ligand (Shield1) and bioluminescent signals were imaged over time as described (Lin, A. H., et al. (2005) J. Immunol. 175:547-54; Luo, J., et al. (2006) Proc. Nat'l. Acad. Sci. USA 103:18326-31; n=4-10 mice per treatment group).

[7] = system: FKBP variant fusions to proteins of interest in NIH3T3 cells; experiment: Immunoblot of proteins of interest fused to FKBP destabilizing domains, mock or 1 μM Shield1; format: cell-based
Description: (FIG. 4A) FKBP variants F15S and L106P were fused to the N-termini of several different proteins and transduced into NIH3T3 cells. Cell populations stably expressing the fusions were then either mock-treated or treated with 1 μM Shield1, and cell lysates were subjected to immunoblot analysis using antibodies specific for the protein of interest. Endogenous proteins served as loading controls (when detected) and Hsp90 served as a loading control otherwise. (FIG. 4B) FKBP variants D100G and L106P were fused to the C-termini of several different proteins of interest and treated as above.
An additional example is CD8α, a transmembrane glycoprotein found on the surface of T cells, which was able to be detected on the surface of cells by flow cytometry (FIG. 5), in a Shield1-dependent manner. […] Here, NIH3T3 cells stably expressing the fusion proteins were divided into three pools (groups). The first group (−) was mock-treated, the second group (+) was treated with 1 μM Shield1 for 24 hrs, and the third group (+/−) was treated with 1 μM Shield1 for 24 hrs, and then washed with media and cultured for 24 hr in the absence of Shield1. Live cells were then probed with a FITC-conjugated anti-CD8α antibody and assayed by flow cytometry. Data are presented as the average mean fluorescence intensity±SEM from an experiment performed in triplicate.

[8] = system: falcipain-2 fused to the F36V/L106P FKBP mutant; experiment: Conditional falcipain stabilization, swollen vacuole phenotype; format: cell-based, Plasmodium falciparum
Source text: In a related experiment, fusion proteins were made with falcipain-2, a cysteine protease. Knocking out the falcipain-2 gene causes vacuole swelling resulting from the decreased ability of the organisms to degrade hemoglobin. Fusion of falcipain-2 to the F36V/L106P FKBP mutant produced a conditional falcipain stabilization system.

[9] = target: T2, FKBP L106P-YFP fusion protein (Homo sapiens, UniProt P62942, F37V); experiment: Shield1 dose-response stabilization of FKBP-YFP fusion, flow cytometry; format: cell-based
T2 construct: expressed in transfected cells
Description: as §1
(§4) Twenty-four hours prior to analysis, transduced NIH3T3 cells were plated at 1×10^5 cells per well of a 12-well plate and treated as described. Cells were removed from the plate using PBS+2 mM EDTA, washed once with PBS, and resuspended in 200 μl PBS. Cells were analyzed at the Stanford Shared FACS Facility using FlasherII with 10,000 events represented.
(§5) Each variant FKBP-derived, ligand-responsive destabilizing domain was separately transduced into NIH3T3 cells, and YFP fluorescence levels were measured in the absence of Shield1 (FIG. 2A). […] The most destabilizing variation, L106P, produced YFP fluorescence at a level of only 1-2% relative to the positive control. All FKBP-derived, ligand-responsive destabilizing domain variants produced increased fluorescence signal when incubated in the presence of Shield1 ([…]). […]

[10] = target: T3, FKBP V24A-YFP fusion protein (Homo sapiens, UniProt P62942, F37V/V25A); experiment: as above; format: cell-based; settings: NIH3T3 cells stably expressing V24A FKBP-YFP; extracellular Shield1 giving 50% of maximum YFP signal; read-out: EC50 of stabilization (rescue) by Shield1
T3 construct: expressed in transfected cells; host or cells: NIH3T3 (retroviral transduction)
Description: as §1, §4, §5

[11] = system: FKBP-derived stability-affecting domain fused to the N-terminus of YFP; experiment: Time lapse fluorescence microscopy of parasitophorous vacuoles in infected HFF cells; format: cell-based, Toxoplasma gondii; settings: T. gondii in HFF cells
Source text: The fluorescence of parasitophorous vacuoles in infected cells was monitored by time lapse microscopy following addition (FIG. 6B) or removal of ligand (FIG. 6C). Background fluorescence is indicated.
Nucleotides expressing the fusion the fusion protein were introduced into T. gondii parasites, which were then used to infect HFF cells. The parasitophorous vacuoles in the infected cells were monitored by time lapse fluorescence microscopy following the addition of ligand (Shield1; FIG. 6B) or following the removal of ligand (FIG. 6C). The indicated control line corresponds to background fluorescence, while each of the other lines in the graphs correspond to individual infected cells.

[12] = system: proteasome; experiment: Immunoblot of F15S-YFP and L106P-YFP after Shield1 withdrawal with proteasome inhibitors; format: cell-based; settings: 10 μM, 4 hrs, F15S-YFP and L106P-YFP in NIH3T3
Description: Immunoblot analysis was performed using an anti-YFP antibody.
The mechanism of degradation was examined for the F15S and L106P variants. Since the ubiquitin-proteasome system is a major mediator of intracellular protein degradation (Pickart, 2004), the cells expressing either the FKBP-derived, ligand-responsive destabilizing domain variants F15S or L106P were incubated with MG132 (FIG. 2F) or lactacystin (FIG. 9), which inhibit ubiquitin-proteasome-mediated protein degradation.

Sequence of luciferase fused to FKBP-derived stability-affecting protein (F36V/L106P) (P62942 with tags, fused parts or gaps F37V limits assumed): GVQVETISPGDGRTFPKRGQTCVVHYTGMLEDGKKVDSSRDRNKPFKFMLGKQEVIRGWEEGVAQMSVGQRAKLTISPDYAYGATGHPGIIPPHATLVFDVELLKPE
T2 sequence (P62942 with tags, fused parts or gaps F37V): as the sequence (P62942 with tags, fused parts or gaps F37V limits assumed) above
T3 sequence (P62942 2-108 V25A/F37V): as the sequence (P62942 with tags, fused parts or gaps F37V limits assumed) above, with V24A, P106L counted along it
Sequence of falcipain-2 fused to the F36V/L106P FKBP mutant (P62942 with tags, fused parts or gaps F37V limits assumed): as the sequence (P62942 with tags, fused parts or gaps F37V limits assumed) above
T1 sequence (P62942 with tags, fused parts or gaps F37V): as the sequence (P62942 with tags, fused parts or gaps F37V limits assumed) above
Sequence of FKBP F36V variant (P62942 2-108 F37V limits assumed): as the sequence (P62942 with tags, fused parts or gaps F37V limits assumed) above, with P106L counted along it

Compound | binding to F36V variant compared to wild-type FKBP [1] | levels of YFP fusion protein in the presence of ligand [2] | additional time maximum fluorescence is stably maintained without further addition of Shield1 [3] | time at which maximum fluorescence is achieved after addition of Shield1 [3] | time within which YFP expression is observed after Shield1 treatment [4] | percentage of cells displaying the predicted morphology (penetrance) [5] | effect of repeated administration of the ligand ([6]; 10 mg/kg Shield1 every 48 hours) | time of peak luminescence following a single injection of ligand ([6]; SCID mice, HCT116 luciferase-FKBP F36V/L106P tumors) | dependence of luminescence on ligand dose ([6]; SCID mice, single injection) | Shield1-dependent stability of fusion proteins [7] | organisms with swollen vacuole phenotype, presence of ligand compared to absence [8] | L106P-YFP stabilization upon addition of Shield1 ([9]; 1 μM Shield1) | EC50 ([9]; NIH3T3 cells stably expressing L106P FKBP-YFP) | EC50 [10] | levels of YFP on addition / removal of ligand [11] | effect on degradation of variant FKBP fusion proteins following withdrawal of Shield1 [12]
1-[2-(3,4,5-trimethoxy-phenyl)-butyryl]-piperazine-2-carboxylic acid 3-(3,4-dimethoxy-phenyl)-1-[3-(2-morpholin-4-yl-ethoxy)-phenyl]-propyl ester [Shield1] | about 1,000 fold | greatly increased | ≥ 48 h | 24 h | ≤ 15 min | > 90% | continued luciferase stabilization | about 10 hours | dependent on ligand dose | Shield1-dependent stability | More than 5 times | fully stabilized | ~100 nM | ~5 nM | levels of YFP increase in the presence of ligand and decrease in the absence of ligand | 
CC(C)C[C@@H](C=O)NC(=O)[C@H](CC(C)C)NC(=O)[C@H](CC(C)C)NC(=O)OCc1ccccc1 [MG132] (Cbz-Leu-Leu-Leu-aldehyde) |  |  |  |  |  |  |  |  |  |  |  |  |  |  |  | inhibited degradation
CC(=O)N[C@@H](CSC(=O)[C@]1([C@@H](O)C(C)C)NC(=O)[C@H](C)[C@@H]1O)C(=O)O [lactacystin] |  |  |  |  |  |  |  |  |  |  |  |  |  |  |  | inhibited degradation
